In ChEMBL document CHEMBL1126797 (J Med Chem, 1993):

How the values were obtained:
[1] = biological target: T1, DNA topoisomerase 1 (Homo sapiens, UniProt P11387); assay: Inhibition of Topoisomerase I by cleavage complex formation in human HL-60 cells; type: cell-based
T1 sequence (P11387 whole entry): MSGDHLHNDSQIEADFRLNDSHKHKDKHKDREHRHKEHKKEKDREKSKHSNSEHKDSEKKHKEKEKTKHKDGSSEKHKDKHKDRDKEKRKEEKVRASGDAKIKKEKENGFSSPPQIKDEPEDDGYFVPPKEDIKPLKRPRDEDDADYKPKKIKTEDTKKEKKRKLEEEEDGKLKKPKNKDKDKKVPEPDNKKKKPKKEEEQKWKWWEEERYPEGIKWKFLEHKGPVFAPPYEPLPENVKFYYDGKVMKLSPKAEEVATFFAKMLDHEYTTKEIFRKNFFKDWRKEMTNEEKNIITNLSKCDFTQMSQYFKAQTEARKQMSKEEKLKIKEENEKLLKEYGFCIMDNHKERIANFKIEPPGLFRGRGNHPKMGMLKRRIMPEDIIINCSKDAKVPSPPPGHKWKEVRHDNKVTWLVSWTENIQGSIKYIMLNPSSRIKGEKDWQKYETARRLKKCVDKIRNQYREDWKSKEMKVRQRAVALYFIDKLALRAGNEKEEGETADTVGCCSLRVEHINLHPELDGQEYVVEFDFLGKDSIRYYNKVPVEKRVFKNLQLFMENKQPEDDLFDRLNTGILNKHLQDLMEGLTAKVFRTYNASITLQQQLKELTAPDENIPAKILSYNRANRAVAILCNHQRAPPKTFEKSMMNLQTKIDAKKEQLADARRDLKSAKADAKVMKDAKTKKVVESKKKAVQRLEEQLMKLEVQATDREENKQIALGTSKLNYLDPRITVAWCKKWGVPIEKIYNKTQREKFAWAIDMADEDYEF

[2] = system: L1210; assay: Log of initial tumor cell population minus log of tumor cell population at end of treatment in L1210 lymphoid leukemic mice; type: functional, Mus musculus
[3] = species: Mus musculus; assay: Toxic dose in L1210 lymphoid leukemic mice; type: toxicity, organism-based; settings: in vivo
[4] = system: Mus musculus; assay: Highest active dose in L1210 lymphoid leukemic mice at dose range of 2.37-8 mg/kg; type: functional
[5] = species: Mus musculus; assay: Number of L1210 lymphoid leukemic mice cured out of […]; type: functional
[6] = species: Mus musculus; assay: Percent median survival time of treated leukemic mice compared to control; type: functional
[7] = system: HT-29; assay: Tumor volume in HT-29 cells after subcutaneous administration on days 16,20,23,27,30,34,37,41,44,48 at dose of 4 mg/kg; type: functional, Homo sapiens
[8] = Number of metastases in K1735-M2 murine melanoma after subcutaneous administration on days1,4,6,8 at dose of 4 mg/kg; type: functional, Mus musculus
[9] = system: Mus musculus; assay: Relative survival in RAW117-H10 cells implanted mice in comparison to control at dose of 4 mg/kg; type: functional
[10] = system: Mus musculus; assay: Relative survival as percent of control survival time in L1210 murine lymphoid leukemic mice after sc administration on days1,4,6,8 at dose of 4 mg/kg; type: functional; settings: route subcutaneous
[11] = system: HT-29; assay: Tumor volume in HT-29 cells after subcutaneous administration on days 16,20,23,27,30,34,37,41,44,48 at dose of 3 mg/kg; type: functional, Homo sapiens
[12] = Number of metastases in K1735-M2 murine melanoma cells after subcutaneous administration on days1,4,6,8 at dose of 3 mg/kg; type: functional, Mus musculus
[13] = system: Mus musculus; assay: Relative survival in L1210 lymphoid leukemic mice after subcutaneous administration on days 1,4,6,8 at dose of 3 mg/kg; type: functional
[14] = system: Mus musculus; assay: Relative survival in RAW117-H10 cells implanted mice in comparison to control at dose of 3 mg/kg; type: functional

Row | Structure (SMILES) | IC50 [1] [nM] | further results
1 | CC[C@@]1(O)C(=O)OCc2c1cc1n(c2=O)Cc2cc3cc(C#N)ccc3nc2-1 | 1900 | –
2 | CC[C@@]1(O)C(=O)OCc2c1cc1n(c2=O)Cc2cc3c(C)cccc3nc2-1 | 38 | KE [2]: 5.6; Toxic dose [3]: 12 mg/kg; Highest active dose [4]: 8 mg/kg; Cures [5]: 4; T/C [6]: 274%
3 | CC[C@@](O)(C(=O)O)c1cc2n(c(=O)c1CO)Cc1cc3ccccc3nc1-2 | 12000 | –
4 | CC[C@@](O)(C(=O)[O-])c1cc2n(c(=O)c1CO)Cc1cc3cc4c(cc3nc1-2)OCO4.[Na+] | 840 | Control [7]: 40%; Control [8]: 15%; T/C [9]: 1.36; T/C [10]: 2.13
5 | CC[C@@]1(O)C(=O)OCc2c1cc1n(c2=O)Cc2cc3c([N+](=O)[O-])c4c(cc3nc2-1)OCO4 | 150 | –
6 | CC[C@@]1(O)C(=O)OCc2c1cc1n(c2=O)Cc2cc3cc(C)ccc3nc2-1 | 300 | –
7 | CC[C@@]1(O)C(=O)OCc2c1cc1n(c2=O)Cc2cc3cc(Cl)ccc3nc2-1 | 140 | –
8 | CC[C@@]1(O)C(=O)OCc2c1cc1n(c2=O)Cc2cc3cc([N+](=O)[O-])ccc3nc2-1 | 640 | –
9 | CC[C@@]1(O)C(=O)OCc2c1cc1n(c2=O)Cc2cc3cc4c(cc3nc2-1)OCO4 | – | Control [11]: 18%; Control [12]: 9%; T/C [13]: 1.49; T/C [14]: 1.33
10 | CCC1(O)C(=O)OCc2c1cc1n(c2=O)Cc2cc3cc(F)ccc3nc2-1 (configuration not stated) | 370 | –
11 | CC[C@](O)(C(=O)O)c1cc2n(c(=O)c1CO)Cc1cc3c(N)c4c(cc3nc1-2)OCO4 | > 30000 | –
12 | CC[C@]1(O)C(=O)OCc2c1cc1n(c2=O)Cc2cc3c(N)c4c(cc3nc2-1)OCO4 | > 30000 | –
13 | CCC1(O)C(=O)OCc2c1cc1n(c2=O)Cc2cc3c(CN4CC4)c(O)ccc3nc2-1 (configuration not stated) | 1100 | –
14 | CC[C@@]1(O)C(=O)OCc2c1cc1n(c2=O)Cc2cc3c(O)cccc3nc2-1 | 870 | –
15 | CCC1(O)C(=O)OCc2c1cc1n(c2=O)Cc2cc3cc(OC(=O)N4CCC(N5CCCCC5)CC4)ccc3nc2-1 (configuration not stated) | 21000 | –
16 | CCC1(O)C(=O)OCc2c1cc1n(c2=O)Cc2cc3c(Cl)c(Cl)ccc3nc2-1 (configuration not stated) | 110 | –
17 | CCC1(O)C(=O)OCc2c1cc1n(c2=O)Cc2cc3c(F)cccc3nc2-1 (configuration not stated) | 160 | –
18 | CCC1(O)C(=O)OCc2c1cc1n(c2=O)Cc2cc3c(Cl)c4c(cc3nc2-1)OCO4 (configuration not stated) | 61 | –
19 | CCC1(O)C(=O)OCc2c1cc1n(c2=O)Cc2cc3cc(Br)ccc3nc2-1 (configuration not stated) | 130 | –
20 | CCC1(O)C(=O)OCc2c1cc1n(c2=O)Cc2cc3cc(OC(=O)N4CCN(C)CC4)ccc3nc2-1 (configuration not stated) | 4400 | –
